# Source: patent publication US20080188528A1, “Modulators of C3a receptor and methods of use thereof” (priority 2006, published 2008)
# Structures can show the parent of a compound that is named as a salt.
# Key:
# [1] = biological target: T1, human C3a receptor (C3aR) (Homo sapiens, UniProt Q16581); test: Inhibition of human [125I]-C3a binding to human C3a receptor (SPA, membranes of HEK293 cells expressing recombinant C3aR); details: 0.1 nM [125I]-C3a, 3 hours at room temperature; Table 6
# T1 construct: expressed in transfected cells
# T1 sequence (Q16581 1-482): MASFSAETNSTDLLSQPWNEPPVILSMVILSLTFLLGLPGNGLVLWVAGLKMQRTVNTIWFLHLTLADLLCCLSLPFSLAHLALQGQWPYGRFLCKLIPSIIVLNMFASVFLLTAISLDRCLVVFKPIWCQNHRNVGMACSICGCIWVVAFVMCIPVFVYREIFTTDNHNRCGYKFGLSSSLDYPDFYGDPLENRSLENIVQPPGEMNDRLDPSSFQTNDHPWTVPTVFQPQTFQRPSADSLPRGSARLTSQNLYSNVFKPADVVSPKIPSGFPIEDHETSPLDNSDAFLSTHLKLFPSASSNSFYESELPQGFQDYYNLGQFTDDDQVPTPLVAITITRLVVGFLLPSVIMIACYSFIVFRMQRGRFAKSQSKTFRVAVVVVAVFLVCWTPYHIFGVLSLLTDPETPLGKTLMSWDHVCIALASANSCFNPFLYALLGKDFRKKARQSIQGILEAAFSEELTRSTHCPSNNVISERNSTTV
# Summary of the method: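 HEK293 C3aR membranes were pre-coupled to WGA SPA beads and incubated 3 h at room temperature with 0.1 nM [125I]-C3a in HEPES pH 7.4 buffer containing 0.25% BSA and 0.2% CHAPS, DMSO ≤1%. Nonspecific binding was defined with 1 μM unlabeled C3a. IC50 came from nonlinear least-squares fitting.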
# [2] = cited from earlier work
IC50 [1],Compound,airway inflammation ([2]; asthma model),neutrophil recruitment ([2]; in vivo),paw edema ([2]; in vivo)
500 to 20000 nM,"CC(=N)Nc1ccc([C@H](NC(=O)c2ccc(C(c3ccccc3)c3ccccc3)s2)C(=O)O)cc1 [Compound 135, (2S)-({[5-(Diphenylmethyl)thiophen-2-yl]carbonyl}amino)[4-(ethanimidoylamino)phenyl]ethanoicacid]",,,
50 to 500 nM,"C/C(=N\O)NCCC[C@H](NC(=O)c1ccc(C(c2ccccc2)c2ccccc2)s1)C(=O)O [Compound 136, (2S)-2-({[5-(diphenylmethyl)thiophen-2-yl]carbonyl}amino)-5-{[1-(hydroxyamino)ethylidene]amino}pentanoic acid•TFA]",,,
,NC(N)=NCCC[C@H](NC(=O)COCC(c1ccccc1)c1ccccc1)C(=O)O [SB-290157],reduction of airway inflammation,inhibition of neutrophil recruitment,decreased paw edema
